Read-outs that look alike come from different tables or passages of the source.
What was measured:
[1] = test system: OsGREP1 transcript levels; assay: RNA gel blot of OsGREP1 mRNA in deepwater rice stem sections treated with gibberellin; parameters: species or system Oryza sativa; conditions: 50 μM GA3, stem sections, meristematic zone, within 30 minutes and again 15 h after onset
Description: Analysis of hormone and inhibitor effects was performed using excised stem segments containing the youngest growth-responsive internode (Raskin & Kende, 1984). Growth of the stem sections was induced by application of 50 μM GA3 for the times indicated. To inhibit protein synthesis, stem sections were incubated in aqueous solutions of cycloheximide for the times indicated. Plant tissue for RNA extraction was harvested on ice and immediately after harvest frozen in liquid nitrogen. Meristematic tissue was harvested from 0 to 5 mm above the second youngest node, i.e. the intercalary meristem (IM). […]
To determine gene expression under different conditions and in different rice tissues, mRNA abundance of OsGREP1 was analyzed by RNA gel blot hybridization. […]
mRNA abundance of OsGREP1 was also analyzed in different tissues of adult rice plants and seedlings and in suspension-cultured rice cells by RNA gel blot analysis (FIG. 7). […] OsGREP1 mRNA can also be detected in suspension-cultured cells but at lower levels than in all other tissues. […] Stem sections containing the IM and EZ of the internode were treated with 50 μM GA3 and analyzed for expression of OsGREP1 by RNA gel blot hybridization 0, […], 1, 3, 6 and 15 h after treatment (FIG. 8).

OsGREP1 transcripts = assay: RNA gel blot of OsGREP1 mRNA in deepwater rice internode sections treated with cycloheximide; parameters: species or system Oryza sativa
Description: Analysis of hormone and inhibitor effects was performed using excised stem segments containing the youngest growth-responsive internode (Raskin & Kende, 1984). Growth of the stem sections was induced by application of 50 μM GA3 for the times indicated. To inhibit protein synthesis, stem sections were incubated in aqueous solutions of cycloheximide for the times indicated. Plant tissue for RNA extraction was harvested on ice and immediately after harvest frozen in liquid nitrogen. Meristematic tissue was harvested from 0 to 5 mm above the second youngest node, i.e. the intercalary meristem (IM). Cells which are predominately involved in elongation were harvested from 5 to 15 mm above the second youngest node, i.e. the elongation zone (EZ) and differentiated tissue was harvested from the oldest part of the internode below the youngest node, i.e. the differentiation zone (DZ).
To determine gene expression under different conditions and in different rice tissues, mRNA abundance of OsGREP1 was analyzed by RNA gel blot hybridization. Total RNA was isolated using the TRIzol reagent (Gibco BRL) and precipitated with 4M LiCl as described (Puissant & Houdebine, 1990). […]
Gene expression of OsGREP1 was also determined by measuring mRNA abundance in IM sections of deepwater rice internodes treated with cycloheximide (CHX) at 0, 0.02, 2, and 20 μg/ml (FIG. 9). […]

protein synthesis [2] = conditions: maize, 20 μM CHX; cited from earlier work
protein synthesis [3] = conditions: alfalfa, 150 μM; cited from earlier work
Arabidopsis thaliana = assay: Phenotypic characterization of transgenic plants transformed with OsPSK (digital imaging of rosette and inflorescence); type: in vivo
Description: Of 11 different transgenic plant lines of Arabidopsis thaliana (named AE0017, AE0018, AE0019, AE0021, AE0022, AE0023, AE0024, AE0025, AE0026, AE0027 and Os-PSK) 500 mg of seeds is placed in 50 ml plastic tubes. 27 ml of a 0.2% agar solution is added and mixed to suspend the seeds. The said tubes are stored at 4° C. for 3 days to release dormancy. Subsequently, the suspension of seeds was evenly dispensed as drops of 50 μl on a 50 cm by 30 cm tray containing a mixture of sand and soil in a ratio of 1 to 2.
The trays were placed in the greenhouse under the following conditions: 22° C. at day time, 18° C. at night, 60% RH, 20 hours of photoperiod, subirrigation once a day with water during 15 min. The 4th day and the 10th day after sowing, the seedlings were sprayed with an herbicide solution. The 14th day after sowing, 30 resistant seedlings of each transgenic line were transplanted in individual pots with a diameter of 10 cm containing a mixture of sand and peat in a ratio of 1 to 3.
Said pots are then placed in the greenhouse under the same conditions as described for the trays. The pots are subirrigated during 15 min. once a week, or more if needed. The 14th, 18th, 21st, 28th, 32nd and 39th day after sowing, the rosettes of each plant were photographed using a digital camera and the pictures were stored for further analysis.
The 32nd, 38th, 41 st, 46th, 49th, and 53rd day after sowing, the inflorescence of each plant was photographed equally using a digital camera and the pictures were stored for further analysis. The number of pixels corresponding to plant tissues was recorded on each picture, converted to square cm and used as a measurement of plant size.

With `C=C1C[C@]23C[C@@]1(O)CC[C@H]2[C@@]12C=C[C@H](O)[C@@](C)(C(=O)O1)[C@H]2[C@@H]3C(=O)O` [GA3, gibberellic acid] the OsGREP1 transcript levels [1] was “slight and transient increase” and the OsGREP1 transcript levels ([1]; listed as GA) was “induced”.

For `C[C@@H]1C[C@@H]([C@H](O)CC2CC(=O)NC(=O)C2)C(=O)[C@@H](C)C1` [cycloheximide], the OsGREP1 transcripts (OsGREP1 transcripts; IM sections of deepwater rice internodes, 20 μg/ml (corresponds to 70 μM) CHX) is listed as “induced”, the “cycloheximide concentration at which OsGREP1 transcripts accumulate” value (OsGREP1 transcripts; stem sections of deepwater rice, 0 to 20 μg/ml tested) is listed as at least 0.2 µg/mL and the “inhibition of protein synthesis” value (protein synthesis [2]) is listed as 23%. For the same molecule, the “inhibition of protein synthesis” value (protein synthesis [3]) was 90%.

B1: OsPSK: rice growth regulating polypeptide, prepro-phytosulfokine (SEQ ID NO 104/105), overexpressed in transgenic Arabidopsis under sunflower ubiquitin promoter (protein, listed as Oryza sativa)
chain: MVNPGRTARALCLLCLALLLLGQDTHSRKLLLQEKHSHGVGNGTTTTQEPSRENGGSTGSNNNGQLQFDSAKWEEFHTDYIYTQDVKNP
With B1 the “ratio between size of inflorescence before harvest and maximal measured size of the rosette” value (Arabidopsis thaliana; OsPSK plants vs other transgenic plant lines in the same experiment) was “significantly higher”, the rosette size (Arabidopsis thaliana; OsPSK transgenic line vs other transgenic lines) was “slightly bigger” and the plant size (Arabidopsis thaliana; OsPSK transgenic line vs the other transgenic plant lines in the experiment) was “on average the biggest plants”.
